Results reported in PubChem BioAssay AID200 (DTP/NCI, 2004).
Where “and” joins values, the source holds several entries; their conditions need not be identical. Identical values can stand only once. Toxic doses and inconclusive results are not listed. Where a SMILES comes first, the peptide text is derived from it. The star is where a group is joined. For = O=C*

System: B6C3F1 mice, B16 melanoma ip, median survival T/C
Experiment: NCI In Vivo Anticancer Drug Screen. Data for tumor model B16 Melanoma (intraperitoneal) in B6C3F1 mice
Conditions: endpoint: median survival time, schedule: Q01DX009 (ip), higher = longer survival
In short: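 Values are T/C ratios: the measurement in treated animals divided by that in vehicle-treated controls, using survival or tumor size in mice carrying transplantable tumors.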

[1] = dose: 25.0 mg/kg/injection, vehicle: Klucel (hydroxypropylcellulose) (HPC)
[2] = dose: 50.0 mg/kg/injection, vehicle: Klucel (hydroxypropylcellulose) (HPC)
[3] = dose: 100.0 mg/kg/injection, vehicle: Klucel (hydroxypropylcellulose) (HPC)
[4] = dose: 200.0 mg/kg/injection, vehicle: Klucel (hydroxypropylcellulose) (HPC)
[5] = dose: 400.0 mg/kg/injection, vehicle: Klucel (hydroxypropylcellulose) (HPC)
[6] = dose: 25.0 mg/kg/injection, vehicle: saline with Tween-80
[7] = dose: 50.0 mg/kg/injection, vehicle: saline with Tween-80
[8] = dose: 100.0 mg/kg/injection, vehicle: saline with Tween-80
[9] = dose: 6.25 mg/kg/injection, vehicle: saline with Tween-80
[10] = dose: 12.5 mg/kg/injection, vehicle: saline with Tween-80
[11] = dose: 200.0 mg/kg/injection, vehicle: saline with Tween-80
[12] = dose: 400.0 mg/kg/injection, vehicle: saline with Tween-80
[13] = dose: 30.0 mg/kg/injection, vehicle: saline with Tween-80
[14] = dose: 1.56 mg/kg/injection, vehicle: saline with Tween-80
[15] = dose: 3.12 mg/kg/injection, vehicle: saline with Tween-80

Q: O=C(CC(=O)C(F)(F)F)c1csc2ccccc12 was tested. Which T/C (dose: 3.12 mg/kg/injection, vehicle: Klucel (hydroxypropylcellulose) (HPC)) did it give?
A: 112 % of control

Q: What about the T/C (dose: 6.25 mg/kg/injection, vehicle: Klucel (hydroxypropylcellulose) (HPC)) of the same compound?
A: 89 % of control

Q: What about the T/C (dose: 12.5 mg/kg/injection, vehicle: Klucel (hydroxypropylcellulose) (HPC)) of the same compound?
A: 103 % of control

Q: And the T/C [1]?
A: 113 % of control

Q: What about the T/C [2] of the same compound?
A: 100 % of control

Q: What about the T/C [3] of the same compound?
A: 87 % of control

Q: How did the T/C [1] turn out when CSCCC(NC=O)C(=O)NC(C(=O)O)C(C)C (stereo not drawn) (For-Met-Val-OH; configuration not given here) was run?
A: 101 % of control

Q: And the T/C [2]?
A: 101 % of control

Q: And the T/C [3]?
A: 107 % of control

Q: And the T/C [4]?
A: 105 % of control

Q: And the T/C [5]?
A: 98 % of control

Q: What does the source list for O=C1NC(=O)C2(CCC(C3CCCCC3)CC2)N1 (configuration not stated)?
A: T/C [2]: 87 % of control; T/C [3]: 89 % of control; T/C [4]: 89 % of control

Q: For CCC(C)C(NC(=O)OC(C)(C)C)C(=O)O (configuration not stated), which T/C [3] is on record?
A: 99 % of control

Q: And the T/C [4]?
A: 92 % of control

Q: And the T/C [5]?
A: 87 % of control

Q: Which results are given for CC(C)n1cnc2c(Cl)ncnc21?
A: T/C [6]: 88 % of control; T/C [7]: 104 % of control; T/C [8]: 87 % of control

Q: With C=C1C(=O)OCC1C(=O)O (configuration not stated) as the compound, how does the T/C (dose: 4.0 mg/kg/injection, vehicle: saline) read?
A: 102 % of control and 103 % of control

Q: What about the T/C (dose: 8.0 mg/kg/injection, vehicle: saline) of the same compound?
A: 102 % of control

Q: What about the T/C (dose: 16.0 mg/kg/injection, vehicle: saline) of the same compound?
A: 88 % of control and 93 % of control

Q: What about the T/C (dose: 32.0 mg/kg/injection, vehicle: saline) of the same compound?
A: 93 % of control

Q: How did the T/C [3] turn out when O=C(O)CNC(=O)OCC1c2ccccc2-c2ccccc21 was run?
A: 93 % of control

Q: What about the T/C [4] of the same compound?
A: 87 % of control

Q: What about the T/C [5] of the same compound?
A: 86 % of control

Q: What does the source list for CC[n+]1c(-c2ccccc2)c2cc(N)ccc2c2ccc(N)cc21?
A: T/C (dose: 0.75 mg/kg/injection, vehicle: water): 97 % of control; T/C (dose: 1.5 mg/kg/injection, vehicle: water): 104 % of control; T/C (dose: 3.0 mg/kg/injection, vehicle: water): 117 % of control and 97 % of control; T/C (dose: 6.0 mg/kg/injection, vehicle: water): 118 % of control; T/C (dose: 12.0 mg/kg/injection, vehicle: water): 154 % of control

Q: With Cc1ccc2c(c1)N=C(Nc1ccccc1)N=S2(C)=O (configuration not stated) as the compound, how does the T/C [9] read?
A: 101 % of control

Q: And the T/C [10]?
A: 87 % of control

Q: What about the T/C [6] of the same compound?
A: 102 % of control

Q: And the T/C [7]?
A: 96 % of control

Q: And the T/C [8]?
A: 87 % of control

Q: And the T/C [11]?
A: 90 % of control

Q: OC(CN1CCCC2CCCCC21)c1cc2ccccc2c2ccccc12 (configuration not stated) was tested. Which T/C [6] did it give?
A: 100 % of control

Q: And the T/C [7]?
A: 100 % of control

Q: What about the T/C [8] of the same compound?
A: 96 % of control and 97 % of control

Q: COc1ccc2c(c1[N+](=O)[O-])CC[C@@H]1[C@@H]2CC[C@]2(C)C(=O)CC[C@@H]12 was tested. Which T/C [7] did it give?
A: 94 % of control and 95 % of control

Q: What about the T/C [8] of the same compound?
A: 91 % of control and 108 % of control

Q: What about the T/C [11] of the same compound?
A: 90 % of control

Q: And the T/C [12]?
A: 91 % of control

Q: And the T/C (dose: 800.0 mg/kg/injection, vehicle: saline with Tween-80)?
A: 91 % of control

Q: COc1ccc(O)cc1 was tested. Which T/C [10] did it give?
A: 112 % of control

Q: What about the T/C (dose: 18.0 mg/kg/injection, vehicle: saline with Tween-80) of the same compound?
A: 98 % of control

Q: And the T/C [6]?
A: 101 % of control

Q: And the T/C [13]?
A: 106 % of control

Q: And the T/C [7]?
A: 102 % of control

Q: And the T/C (dose: 89.0 mg/kg/injection, vehicle: saline with Tween-80)?
A: 106 % of control

Q: And the T/C [8]?
A: 104 % of control

Q: What about the T/C (dose: 189.0 mg/kg/injection, vehicle: saline with Tween-80) of the same compound?
A: 101 % of control

Q: And the T/C [11]?
A: 105 % of control

Q: Which T/C [9] does the source give for O=[N+]([O-])c1ccc(N(CCO)CCO)c2c1no[n+]2[O-] here?
A: 102 % of control

Q: What about the T/C [10] of the same compound?
A: 114 % of control

Q: And the T/C [6]?
A: 102 % of control

Q: Which results are given for O=CN(SSN(C=O)C1CCCCC1)C1CCCCC1?
A: T/C [10]: 90 % of control; T/C [6]: 106 % of control; T/C [7]: 101 % of control; T/C [8]: 89 % of control; T/C [11]: 97 % of control

Q: CCc1nc(N)nc(N)c1-c1ccc(Cl)c([N+](=O)[O-])c1 was tested. Which T/C [14] did it give?
A: 106 % of control

Q: What about the T/C [15] of the same compound?
A: 105 % of control

Q: What about the T/C (dose: 3.25 mg/kg/injection, vehicle: saline with Tween-80) of the same compound?
A: 100 % of control

Q: And the T/C [9]?
A: 111 % of control

Q: And the T/C (dose: 7.5 mg/kg/injection, vehicle: saline with Tween-80)?
A: 101 % of control

Q: What about the T/C (dose: 15.0 mg/kg/injection, vehicle: saline with Tween-80) of the same compound?
A: 103 % of control

Q: What about the T/C [13] of the same compound?
A: 104 % of control

Q: What about the T/C (dose: 60.0 mg/kg/injection, vehicle: saline with Tween-80) of the same compound?
A: 114 % of control

Q: How did the T/C (dose: 3.0 mg/kg/injection, vehicle: Klucel (hydroxypropylcellulose) (HPC)) turn out when CC1=C(CC/C(C)=C/CCC2=CCC(C3=CC(=O)OC3O)OC2O)C(C)(C)CCC1 (configuration not stated) was run?
A: 90 % of control

Q: And the T/C (dose: 6.0 mg/kg/injection, vehicle: Klucel (hydroxypropylcellulose) (HPC))?
A: 90 % of control

Q: For Cc1ccc(N=NN(C)C)c2cccnc12, which T/C (dose: 3.13 mg/kg/injection, vehicle: other) is on record?
A: 106 % of control

Q: What about the T/C (dose: 6.25 mg/kg/injection, vehicle: other) of the same compound?
A: 95 % of control

Q: And the T/C (dose: 12.5 mg/kg/injection, vehicle: other)?
A: 108 % of control

Q: And the T/C (dose: 25.0 mg/kg/injection, vehicle: other)?
A: 114 % of control

Q: What about the T/C (dose: 50.0 mg/kg/injection, vehicle: other) of the same compound?
A: 115 % of control

Q: Which results are given for CO[C@@]12[C@@H]3N[C@@H]3CN1C1=C(C(=O)C(N3CCCC3)=C(C)C1=O)[C@@H]2COC(N)=O?
A: T/C [15]: 327 % of control; T/C [9]: 100 % of control

Q: For COc1cc2cc(c1Cl)N1CC(O)C(C)(O)C(=O)NC(C)C(=O)OC(CC1=O)C1(C)OC1C(C)C1CC(O)(NC(=O)O1)C(OC)/C=C\C=C(\C)C2OC (configuration not stated), which T/C (dose: 2.0 micrograms/kg/injection, vehicle: distilled water + alcohol) is on record?
A: 164 % of control and 165 % of control

Q: And the T/C (dose: 4.0 micrograms/kg/injection, vehicle: distilled water + alcohol)?
A: 170 % of control and 185 % of control

Q: And the T/C (dose: 8.0 micrograms/kg/injection, vehicle: distilled water + alcohol)?
A: 176 % of control and 195 % of control and 196 % of control

Q: And the T/C (dose: 16.0 micrograms/kg/injection, vehicle: distilled water + alcohol)?
A: 183 % of control and 197 % of control and 212 % of control

Q: What does the source list for COC1C(CO)OC(n2c3c(Cl)cccc3c3c4c(c5c6cccc(Cl)c6[nH]c5c32)C(=O)NC4=O)C(O)C1O (configuration not stated)?
A: T/C (dose: 25.0 mg/kg/injection, vehicle: distilled water + Tween-80): 150 % of control; T/C (dose: 100.0 mg/kg/injection, vehicle: distilled water + Tween-80): 172 % of control and 173 % of control; T/C (dose: 200.0 mg/kg/injection, vehicle: distilled water + Tween-80): 161 % of control

Q: Nc1cccc(=O)[nH]1 was tested. Which T/C (dose: 25.0 mg/kg/injection, vehicle: suspension in saline) did it give?
A: 93 % of control

Q: And the T/C (dose: 50.0 mg/kg/injection, vehicle: suspension in saline)?
A: 95 % of control

Q: What about the T/C (dose: 100.0 mg/kg/injection, vehicle: suspension in saline) of the same compound?
A: 94 % of control

Q: And the T/C (dose: 200.0 mg/kg/injection, vehicle: suspension in saline)?
A: 94 % of control

Q: What about the T/C (dose: 400.0 mg/kg/injection, vehicle: suspension in saline) of the same compound?
A: 93 % of control

Q: What does the source list for C1CC[N-]CC1.[Cl][Pt+2][Cl].[NH-]C1CC1?
A: T/C [14]: 117 % of control; T/C (dose: 3.12 mg/kg/injection, vehicle: water): 106 % of control; T/C (dose: 6.25 mg/kg/injection, vehicle: water): 116 % of control; T/C [10]: 159 % of control

Q: How did the T/C [10] turn out when CC(=O)OCC1(C)NC(=O)c2ccccc2O1 (configuration not stated) was run?
A: 88 % of control and 103 % of control

Q: What about the T/C [6] of the same compound?
A: 114 % of control and 103 % of control

Q: What about the T/C [7] of the same compound?
A: 95 % of control and 100 % of control

Q: What about the T/C [8] of the same compound?
A: 92 % of control and 93 % of control

Q: And the T/C [11]?
A: 90 % of control

Q: And the T/C [12]?
A: 86 % of control
